Test results reported in US9138434B2, “Octahydrothienoquinoline derivative, pharmaceutical composition comprising derivative, and use of these” (KISSEI PHARMACEUTICAL CO., LTD., priority 2011, dated 2015).

Each compound was assayed against T1, human dopamine D2 receptor (Homo sapiens, UniProt P14416) (assay: Stimulating activities on human dopamine D2 receptor, [35S]GTPγS binding to hD2R#7 cell membrane homogenates). Conditions: [35S]GTPγS binding, membrane homogenates of HEK293 cells stably expressing human D2 receptor; mean, n=2; read-out: EC50.
T1 construct: accorded to it of human dopamine D2 receptor (NM1-000795) registered on NCBI completely; expressed in transfected cells; membrane homogenates
T1 sequence (P14416 whole entry): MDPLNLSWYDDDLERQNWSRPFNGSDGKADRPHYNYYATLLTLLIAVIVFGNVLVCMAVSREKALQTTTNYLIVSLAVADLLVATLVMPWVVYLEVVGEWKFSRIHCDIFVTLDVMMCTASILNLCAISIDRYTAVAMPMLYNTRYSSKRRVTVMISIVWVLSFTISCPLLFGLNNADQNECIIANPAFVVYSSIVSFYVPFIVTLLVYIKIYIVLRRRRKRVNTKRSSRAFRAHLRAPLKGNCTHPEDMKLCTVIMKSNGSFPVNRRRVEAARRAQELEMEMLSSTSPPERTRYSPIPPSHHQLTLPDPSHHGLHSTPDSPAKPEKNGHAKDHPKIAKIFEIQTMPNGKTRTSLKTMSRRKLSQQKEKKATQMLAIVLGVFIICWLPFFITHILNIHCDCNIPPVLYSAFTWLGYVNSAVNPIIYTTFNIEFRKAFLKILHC
Assay type: biochemical
Method: Identification Test of Stimulating Activities on Human Dopamine D2 Receptor
4) Preparation of Membrane Homogenates from hD2R#7 Cells
(2) Preparation of Membrane Homogenates from hD2R#7 Cells
The cells, which were grown to confluence in 150 mm dishes (IWAKI), were harvested with isotonic buffer (50 mM Tris (Sigma), 2 mM ethylenediamine-tetraacetic acid (Invitrogen), and 125 mM sodium chloride (Wako Pure Chemicals), pH 7.4) and centrifuged at 1880×g and 4° C. for 10 minutes, and the cell pellets were then suspended in isotonic buffer. After being subjected to one cycle of freezing and thawing, the cells were centrifuged at 1880×g and 4° C. for 10 minutes, and the cell pellets were suspended in isotonic buffer. The cells were centrifuged at 1880×g and 4° C. for 10 minutes, and the cell pellets were suspended in isotonic buffer and homogenate buffer (10 mM sodium bicarbonate (Nacalai) and 5 mM ethylenediamine-tetraacetic acid, pH 7.5). The volume ratio of isotonic-to-homogenate buffer was 2. The cells were sonicated and centrifuged at 1880×g and 4° C. for 10 minutes, and the supernatants were ultracentrifuged at 80000×g and 4° C. for 30 minutes. The final cell pellets were suspended in homogenate buffer containing protease inhibitor cocktail (Nacalai) and stored at −80° C. until use. The protein concentration was determined using BCA Protein Assay Kit (Pierce) in accordance with the manufacturer's instructions.
5) Determination of Stimulating Activities of Human Dopamine D2 Receptor
The stimulating activities of human dopamine D2 receptor was determined by measuring the binding potential of [^35S]-guanosine 5′-[gamma-thio]triphosphate ([^35S]GTPγS, PerkinElmer) according to the method described by Newman-Tancredi A. et al. (Naunyn-Schmiedeberg's Arch Pharmacol, 1999, vol. 359, pp. 447-453) with a minor modification. Test compounds and dopamine hydrochloride (Fluka) as positive control were dissolved in dimethyl sulfoxide (CARLBIOCHEM), resulting in 30 mM. The both compounds were diluted with assay buffer (50 mM Tris, 100 mM sodium chloride, 5 mM magnesium chloride (Nacalai), 1 mM ethylenediamine-tetraacetic acid, 1 mM dithiothreitol (Wako Pure Chemicals), 10 μM guanosine diphosphate (Wako Pure Chemicals) and 0.5% bovine serum albumin (Sigma), pH 7.4) to a final concentration of 100 pM (only test compounds), 1 nM, 10 nM, 100 nM, 1 μM, 10 μM and 100 μM (only dopamine hydrochloride). The above membrane homogenates and [^35S]GTPγS were diluted with assay buffer to a final concentration of 0.06 mg/mL and 0.6 nM, respectively. The serial diluted compounds (50 μL), the diluted membrane homogenates (50 μL) and the diluted [^35S]GTPγS (50 μL) were mixed on multi-screen 96-well plate (Millipore) and shaken lightly at room temperature for 60 minutes. The reaction was terminated by vacuum filtration with three times washes of ice-cold wash buffer (50 mM Tris, 100 mM sodium chloride, 5 mM magnesium chloride, and 1 mM ethylenediamine-tetraacetic acid, pH 7.4). After drying the bottoms of the plate at 60° C., MicroScinti-40 (PerkinElmer) (30 μL) was added in the plate. The tops of the plate were sealed by TopSeal-A (PerkinElmer), and the radioactivity was determined in a TopCount NXT (registered mark) (PerkinElmer) after shaking lightly for 5-10 minutes. The data was analyzed by nonlinear regression and sigmoidal dose-response curve fitting using GraphPad PRISM 4.0 (GraphPad Software), and values of EC50 (concentration of the compound producing half the maximal effect of the compound) were calculated. The data was presented as mean value (n=2).
`CCCCN(C(=O)NCCN(C)C)C(=O)[C@@H]1C[C@@H]2Cc3c(sc(N)c3C#N)C[C@H]2N(C)C1` (relative stereo) [1-24, 1-{[(4aR*,6R*,8aR*)-2-amino-3-cyano-8-methyl-4H,4aH,5H,6H,7H,8H,8aH,9H-thieno[3,2-g]quinolin-6-yl]carbonyl}-1-butyl-3-[2-(dimethylamino)ethyl]urea] gave an EC50 of 17 nM. With `CC(C)CCN(C(=O)NCCN(C)C)C(=O)[C@@H]1C[C@@H]2Cc3c(sc(N)c3C#N)C[C@H]2N(C)C1` (relative stereo) [1-43, 1-{[(4aR*,6R*,8aR*)-2-amino-3-cyano-8-methyl-4H,4aH,5H,6H,7H,8H,8aH,9H-thieno[3,2-g]quinolin-6-yl]carbonyl}-3-[2-(dimethylamino)ethyl]-1-(3-methylbutyl)urea] the EC50 was 32 nM. With `CCCCN(C(=O)NCCN1CCCCC1)C(=O)[C@@H]1C[C@@H]2Cc3c(sc(N)c3C#N)C[C@H]2N(C)C1` (relative stereo) [1-46, 1-{[(4aR*,6R*,8aR*)-2-amino-3-cyano-8-methyl-4H,4aH,5H,6H,7H,8H,8aH,9H-thieno[3,2-g]quinolin-6-yl]carbonyl}-1-butyl-3-[2-(piperidin-1-yl)ethyl]urea] the EC50 was 10 nM. For `CCCN(C(=O)NCCN(C)C)C(=O)[C@@H]1C[C@@H]2Cc3c(sc(N)c3C#N)C[C@H]2N(C)C1` [1-1, 1-{[(4aR,6R,8aR)-2-amino-3-cyano-8-methyl-4H,4aH,5H, 6H,7H,8H,8aH,9H-thieno[3,2-g]quinolin-6-yl]carbonyl}-3-[2-(dimethylamino)ethyl]-1-propylurea], the EC50 was 6 nM. In the case of `CCCCN(C(=O)NCCN(CC)CC)C(=O)[C@@H]1C[C@@H]2Cc3c(sc(N)c3C#N)C[C@H]2N(C)C1` [1-3, 1-{[(4aR,6R,8aR)-2-amino-3-cyano-8-methyl-4H,4aH,5H,6H,7H,8H,8aH,9H-thieno[3,2-g]quinolin-6-yl]carbonyl}-1-butyl-3-[2-(diethylamino)ethyl]urea], the EC50 is reported as 7 nM. `CCN(C(=O)NCC(C)(C)CN(C)C)C(=O)[C@@H]1C[C@@H]2Cc3c(sc(N)c3C#N)C[C@H]2N(C)C1` [1-4, 1-{[(4aR,6R,8aR)-2-amino-3-cyano-8-methyl-4H,4aH,5H,6H,7H,8H,8aH,9H-thieno[3,2-g]quinolin-6-yl]carbonyl}-3-[3-(dimethylamino)-2,2-dimethylpropyl]-1-ethlylurea] was tested, and the EC50 was 3 nM. `CCN(C(=O)N[C@@H](C)CN(C)C)C(=O)[C@@H]1C[C@@H]2Cc3c(sc(N)c3C#N)C[C@H]2N(C)C1` [1-57, 1-{[(4aR,6R,8aR)-2-amino-3-cyano-8-methyl-4H,4aH,5H,6H, 7H,8H,8aH,9H-thieno[3,2-g]quinolin-6-yl]carbonyl}-3-[(2S)-1-(dimethylamino)propan-2-yl]-1-ethylurea] showed an EC50 of 5 nM. `CCN(C(=O)NCCN(C)C)C(=O)[C@@H]1C[C@@H]2Cc3c(sc(N)c3C#N)C[C@H]2N(C)C1` [1-108, 1-{[(4aR,6R,8aR)-2-amino-3-cyano-8-methyl-4H,4aH,5H,6H,7H,8H,8aH,9H-thieno[3,2-g]quinolin-6-yl]carbonyl}-3-[2-(dimethylamino)ethyl]-1-ethylurea] showed an EC50 of 6 nM. With `CCCN(CCC)CCc1cccc2c1CC(=O)N2` [Ropinirole, ropinirole, reference compound] the EC50 was 892 nM.
